Experimental data as given in paper PMC6143625, “A high throughput screen for next-generation leads targeting malaria parasite transmission” (Nature Communications, 2018).

Experiments:
HepG2 human cells = test system: HepG2 human cells; set-up: method as in http://dx.doi.org/10.6019/CHEMBL3507680; details: ref http://dx.doi.org/10.6019/CHEMBL3507680; cited from earlier work
[1] = test system: P. falciparum 3D7 asexual blood stages; test: Whole-cell time extended asexual growth assay (pLDH); format: cell-based; details: Plasmodium falciparum, 72 h; for IC50: dose response retest, read-out: IC50 (µM) Asex stages; for inhibition at 2 µM: primary screen, read-out: %Inh Asex stages @2uM
Experimental: Asexual activity was assayed via Plasmodium lactate dehydrogenase activity (pLDH), a surrogate of asexual parasite growth. […] 2 µM artesunate and DMSO were used as the positive and negative controls, respectively. […] After plate mixing, NBT reduction was measured by absorbance at 650 nm using Envision (Perkin Elmer).

Row | Structure (SMILES) | IC50 [1] | %Inh HepG2 @10uM (HepG2 human cells) | inhibition at 2 µM [1]
1 | CCCn1cc(-c2ccnc(NC3CCc4ccccc4C3)n2)c(C)n1 (stereo not drawn) [DDD01243522] | 1.16 µM | 19.33% | 31.2%
2 | COc1cccc(CN2CC(=O)N(c3ccccc3C)CC2C)c1OC (stereo not drawn) [DDD01244654] | 3.87 µM | -6.78% | 51.8%
3 | CNc1nc(C)cc(NCc2cc(C)cc3c(C)c(C)[nH]c23)n1 [DDD01244907] | 1.3 µM | 98.78% | 91.8%
4 | CC1CCCCN1C(=O)c1coc(COc2cccc3cnccc23)n1 (stereo not drawn) [DDD01245028] | 1.56 µM | -6.78% | 66.8%
5 | NCC1Cc2cc(-c3nccc(N4CCC(O)CC4)n3)cc(Cl)c2O1 (stereo not drawn) [DDD01245918] | 4.85 µM | 5.41% | 72.6%
6 | O=C(O)C1CC2(CCN(c3nccc4ccccc34)CC2)CN1 (stereo not drawn) [DDD01246093] | 3.51 µM | 9.49% | 35.8%
7 | CCn1cc(CN2CCN(Cc3cc(C)cc(C)c3)C(=O)C2)cc1C#N [DDD01246382] | 3.31 µM | 15.63% | 37.3%
8 | CCCn1ncc(-c2ccnc(NC3CC(C)(C)NC(C)(C)C3)n2)c1C [DDD01246448] | 4.53 µM | 80.08% | 41.5%
9 | CC1(c2ccccc2)CCCN(Cc2cncn2C2CCCC2)C1 (stereo not drawn) [DDD01246491] | 2.95 µM | -13.60% | 39.7%
10 | COc1ccnc(CN2CCCC(CCc3ccc(F)cc3)C2)c1OC (stereo not drawn) [DDD01246654] | 2.25 µM | 2.04% | 51%
11 | Cc1ccc2[nH]c(-c3cn(C4CCNCC4)nn3)nc2c1C [DDD01246711] | 2.13 µM | -3.44% | 63.9%
12 | CCN1CCN(C[C@@H]2CN(c3ncc(Cl)cc3F)C[C@@H]2CO)CC1 [DDD01246828] | 1.4 µM | -10.90% | 82.5%
13 | N#Cc1cccc(N2CCCC(CO)(CCOc3ccccc3)C2)n1 (stereo not drawn) [DDD01247086] | 8.09 µM | 8.55% | 32%
14 | CC(C)CN1CCCC1c1ccc(C(=O)Nc2cccnc2)s1 (stereo not drawn) [DDD01247321] | 3.35 µM | 0.07% | 34.5%
15 | CCn1cc(CN2CCN(Cc3cccc(OC)c3)C(=O)C2)cc1C#N [DDD01247460] | 1.46 µM | -1.17% | 76.2%
16 | COc1ccccc1OCCCc1cccc(C#N)n1 [DDD01247630] | 6.32 µM | -1.85% | 36%
17 | COc1cccc(CN(C)Cc2[nH]c3ccccc3c2C)c1O [DDD01247848] | 1.91 µM | 1.38% | 91.2%
18 | CNc1cc(C)nc(NCc2cc(C)cc3c(C)c(C)[nH]c23)n1 [DDD01248198] | 1.79 µM | 67.15% | 69.2%
19 | CC(C)c1cc(CN(C)C(=O)C(C)N2CCc3ccccc3C2)no1 (stereo not drawn) [DDD01248554] | 9.68 µM | 34.35% | 36%
20 | Cc1cccnc1[C@H](C)Nc1nc(-c2cccnc2)nc2c1CNC2 [DDD01248607] | 3.44 µM | -8.07% | 50%
21 | CC(C)Cc1ncc2c(n1)CN(c1nccc(NC(C)C)n1)C2 [DDD01249567] | 1.4 µM | 2.52% | 92.8%
22 | Cc1cccc2[nH]c(-c3cn(C4CCNCC4)nn3)nc12 [DDD01250141] | 3.82 µM | -3.11% | 34.6%
23 | CCc1[nH]c2c(CNc3cc(C)nc(NC)n3)cc(C)cc2c1C [DDD01250162] | 1.2 µM | 98.31% | 55.3%
24 | CCCc1nc(N(C)CCN2CCCCCC2)c2cnn(C)c2n1 [DDD01250696] | 5.78 µM | -11.00% | 32.1%
25 | Cc1cc2nc(-c3cn(C4CCNCC4)nn3)[nH]c2cc1C [DDD01250700] | 2.49 µM | -2.26% | 60.9%
26 | Cc1cnccc1NCCNC1CCN(CC(C)C)CC1 [DDD01251125] | 1.35 µM | 2.02% | 98.4%

More lines, main results first:

Row | IC50 [1] | Structure (SMILES) | %Inh HepG2 @10uM (HepG2 human cells) | inhibition at 2 µM [1]
27 | 1.97 µM | Cc1nc(-c2cc(Cl)cc3c2OC(CN)C3)c[nH]1 (stereo not drawn) [DDD01251343] | 11.09% | 52.6%
28 | 1.78 µM | CCc1[nH]c2c(CNc3nc(C)cc(NC)n3)cc(C)cc2c1C [DDD01251782] | 99.91% | 97.5%
29 | 2.46 µM | O=C(NCc1cnn2cccnc12)c1cccc(CC2CCNCC2)c1 [DDD01252275] | 5.06% | 33%
30 | 1.71 µM | Cc1cccnc1C(Nc1nccc(C2CCCC2)n1)C1CC1 (stereo not drawn) [DDD01252324] | 0.36% | 73.4%
31 | 5.59 µM | COc1cccc(OC)c1CN1CC(=O)N(c2ccc(C)cc2)CC1C (stereo not drawn) [DDD01252418] | 1.44% | 31.8%
32 | 3.07 µM | CCOc1cccc(CN2CCCC(Nc3ccc(F)cc3)C2)c1O (stereo not drawn) [DDD01252745] | -6.06% | 42.7%
33 | 2.61 µM | CNc1cc(C)nc(N2Cc3cnn(Cc4ccc(F)cc4)c3C2)n1 [DDD01252874] | 11.36% | 45.8%
34 | 4.44 µM | Cc1nc(NCCSc2ccccn2)c2c(C)noc2n1 [DDD01253053] | -4.96% | 38.4%
35 | 4.81 µM | NCC1Cc2cc(-c3nccc(N4CCC(O)CC4)n3)cc(F)c2O1 (stereo not drawn) [DDD01254054] | 6.33% | 76.3%
36 | 2.43 µM | CCCc1cncnc1N1CCC(NCc2cc3ccccc3[nH]2)CC1 [DDD01254125] | 8.09% | 35.4%
37 | 1.97 µM | CNc1nc(C)cc(NC2CCCN(C3Cc4ccccc4C3)C2)n1 (stereo not drawn) [DDD01254555] | 14.91% | 91.2%
38 | 2.56 µM | Cc1noc(C)c1CN(C)c1nc(C2CCCC2)nc2c1cnn2C [DDD01254835] | 9.62% | 57.1%
39 | 6.64 µM | CNC(=O)c1cn2cc(-c3ccccc3Cl)n(CC=C(C)C)c(=O)c2n1 [DDD01255495] | 35.09% | 43.8%
40 | 3.29 µM | Cc1cnc(C)c(N2CCN(CCCc3ccncc3)CC2)n1 [DDD01256723] | 6.37% | 48%
41 | 2.73 µM | NCC(=O)N1CCCC1c1ccc(C(=O)NCc2ccoc2)s1 (stereo not drawn) [DDD01257217] | -2.34% | 34.1%
42 | 5.38 µM | CSCCNC(=O)c1ccc(OC2CCN(CC(C)(C)C)CC2)c(Cl)c1 [DDD01257510] | -7.80% | 38.4%
43 | 2.44 µM | Cc1nc[nH]c1CN(C)CC1CCCN(CCc2ccc(Cl)cc2)C1 (stereo not drawn) [DDD01257555] | 20.49% | 66.5%
44 | 2.56 µM | COc1cccc(CN2CCCC(Nc3cccc(F)c3)C2)c1O (stereo not drawn) [DDD01257695] | -4.92% | 55.2%
45 | 1.79 µM | CN(Cc1cccc(O)c1)CC1CCCN(CCc2ccc(Cl)cc2)C1 (stereo not drawn) [DDD01257948] | 10.17% | 92.9%
46 | 2.83 µM | CCC1CN(C(=O)c2ccc(Cl)cc2O)CCN1C(C)C (stereo not drawn) [DDD01258121] | -6.93% | 48.6%
47 | 6.27 µM | CCc1c(C)nc2cc(C3CCN(Cc4ccccc4F)C3)nn2c1O (stereo not drawn) [DDD01270117] | -2.56% | 43.5%
